Assay results taken from patent publication US11453689B2, “3-pyrrolidine-indole derivatives as serotonergic psychedelic agents for the treatment of CNS disorders” (Mindset Pharma Inc., priority 2020, dated 2022).

System: head-twitch response (HTR) in male C57BL6 mice
Experiment: Mouse head-twitch response (HTR)
Type: in vivo
Conditions: M100907 0.5 mg/kg IP before I-2 10 mg/kg SC
Method: Male, C57BL/6J mice (body weight range 20-30 g) were dosed with the appropriate dose of test article, and following a 1-minute pre-treatment time, placed in individual observation chambers. Animals were visually assessed for the incidence head twitches continuously over a 1 hr period. Head twitches were defined as a rapid jerk of the head which was not elicited by an external tactile stimulus (Come and Pickering, Psychopharmacologia, 1967, 11(1): 65-78). Each head twitch was individually counted by a trained observer, and the data expressed as the mean±SEM of 6-10 mice per group. Mice were used in a single experiment only.
The effect of various doses of exemplary compound of Formula I, I-2, on head-twitch response (HTR) in male C57BL6 mice were measured. The mice were treated with compound I-2 (0.03-10 mg/kg, SC) by SC route (N=6 mice/dose), and the total number of head twitches were recorded over a 1h period. Data is expressed as mean±SEM. The induction of head twitches elicited by 5-HT2A receptor agonists is believed to represent a behavioural proxy of their psychedelic effects.
To evaluate the involvement of 5-HT2A receptor on the HTR induced by exemplary compounds of Formula I, mice were pretreated with the selective 5-HT2AR antagonist M100907 (also known as volinanserin) prior to the administration of exemplary compounds of Formula I, for example, 1-2 (10 mg/kg SC).

In the case of `[2H]C([2H])([2H])N1CCC[C@@H]1Cc1c[nH]c2cccc(O)c12` [Compound I-2, (R)-3-((1-(methyl-d3)pyrrolidin-2-yl)methyl)-1H-indol-4-ol], the “effect of I-2 on HTR after pretreatment with 5-HT2A antagonist M100907” value is reported as “completely blocked”.
